Data reported in patent publication EP0222155A1, “5-Fluorouracil derivatives” (TERUMO KABUSHIKI KAISHA trading as TERUMO CORPORATION, priority 1985, dated 1987).
Like-named read-outs stand apart in the source and are kept apart here.

How the values were obtained:
P388 cells = assay: Antitumor activity: increase in life survival of mice transplanted i.p. with P388 cells; type: in vivo, CDF₁ mice; details: for ILS (%): intraperitoneally once a day for five days, P388 in CDF₁ mice
Protocol: CDF₁ mice (male, 5 weeks old) were intraperitoneally transplanted with P388 cells at a dose of 1 x 10⁶ cells/mouse.
From the next day of the transplantation, a test compound of the invention in the form of 0.5% carboxymethylcellulose suspension was intraperitoneally administered once a day for consecutive five days. Percent increase in life survival was determined: [formula]

platelet aggregation = assay: Platelet aggregation-inhibitory activity in platelet-rich plasma; type: cell-based, rabbit; details: Oryctolagus cuniculus
Protocol: From rabbit carotid […] was drawn blood (9 volumes) by means of a syringe containing 3.8% aqueous sodium citrate (1 volume). The blood was centrifuged to obtain platelet-rich plasma (PRP: 550,000/µl). Platelet aggregation-inhibitory activity of a compound of the invention was measure using as an aggregation-inducing agent arachidonic acid or collagen. 50%-inhibition concentration (IC₅₀) against the platelet aggregation caused by arachidonic acid (80 µM) and collagen (30 µg/ml) is shown in Table 2 for representative compounds according to the invention.

[1] = Acute toxicity test, oral administration; details: mouse, in vivo, ICR male mice (7 weeks old), read-out: LD₅₀
Source text: An acute toxicity test was run with ICR male mice (7 weeks old) by an oral administration.

[2] = aggregation caused by arachidonic acid (80 µM), rabbit PRP, read-out: 50%-Inhibition concentration, Arachidonic acid
[3] = aggregation caused by collagen (30 µg/ml), rabbit PRP, read-out: 50%-Inhibition concentration, Collagen

Row | Structure (SMILES) | ILS (%) (P388 cells; Dose 10 mg/kg/day) | ILS (%) (P388 cells; Dose 30 mg/kg/day) | ILS (%) (P388 cells; Dose 100 mg/kg/day) | IC50 (platelet aggregation; [2]) [µM] | IC50 (platelet aggregation; [3]) [µM] | ILS (%) (P388 cells; Dose 40 mg/kg/day) | survival days compared with control mice (in words) (P388 cells; Dose 100 mg/kg/day as stated in the text) | IC50 (platelet aggregation; read-out: 50%-Inhibition concentration, Arachidonic acid) [µM] | IC50 (platelet aggregation; read-out: 50%-Inhibition concentration, Collagen) [µM] | LD50 [1] [mg/kg]
1 | CC/C=C\C/C=C\C/C=C\CCCCCCCC(=O)OC(CC)n1cc(F)c(=O)[nH]c1=O (stereo not drawn) [Example 2, 1-(α-9,12,15-octadecatrienoyloxy-α-ethyl)methyl-5-fluorouracil] | 27.2 | 39.7 | 73.8 | 57 | 530 |  |  |  |  | 
2 | O=c1[nH]cc(F)c(=O)[nH]1 [Example 5-FU, 5-Fluorouracil] | 65.2 | 27.4 |  |  |  | -24.8 | survival days shorter than those for control mice | > 1000 | > 1000 | 309
3 | CC/C=C\C/C=C\C/C=C\CCCCCCCC(=O)OC(C)n1cc(F)c(=O)[nH]c1=O (stereo not drawn) [Example 1, 1-(α-9,12,15-octadecatrienoyloxy-α-methyl)-methyl-5-fluorouracil] | 24.6 | 46.8 | 80.5 | 65 | 340 |  |  |  |  | 
4 | CC/C=C\C/C=C\C/C=C\C/C=C\C/C=C\CCCC(=O)OC(C)n1cc(F)c(=O)[nH]c1=O (stereo not drawn) [Example 3, 1-(α-5,8,11,14,17-eicosapentaenoyloxy-α-methyl)methyl-5-fluorouracil] | 26.8 | 49.2 | 82.1 | 32 | 140 |  |  |  |  | 
